# Where “and” joins values, the source holds several entries; their conditions need not be identical. Identical values can stand only once.
# System: patients with HCC
# Experiment: Tumor response / efficacy in patients with HCC (RECIST 1.1/modified RECIST), trial NCT02834780
# Type: in vivo, human
# Settings: for Clinical Benefit Rate (CBR)(CR+PR+Durable SD): durable SD = stable disease ≥ 17 weeks; for clinical benefit rate / confirmed ORR: 55 HCC patients with ≥ 2 prior lines of therapy; for clinical benefit rate (complete response + partial response + durable stable disease) / confirmed overall response rate (ORR): 90 patients with HCC; for median OS / median PFS: HCC patients with ≥ 2 prior lines of therapy; for median overall survival (OS) / median progression-free survival (PFS): all HCC patients
# From the text: A description of the first in human clinical trial for H3B-6527 can be found at the ClinicalTrials.gov by searching for trial identifier NCT02834780. In summary, the trial included a study population having the following characteristics: Adult patients ≥18 years old with advanced HCC or ICC; Progression after at least one prior therapy; ECOG score of 0 or 1; Well compensated liver function; FGF19-positive (dose expansion phase only); Excluded if patients have significant active infections [except hepatitis B virus (HBV) and hepatitis C virus (HCV)], gastric or esophageal varices, or previous FGF19-FGFR4 targeted therapy.
# Drug Administration and Dosage for Dose Escalation: H3B-6527 was administered orally QD or BID on a 21-day cycle. Dose escalation followed a standard 3+3 cohort design with the dose cohorts of 300, 600, 1000, and 1400 mg QD fasting or 500 and 700 mg BID fed. Patients in dose escalation phase were treated regardless of FGF19 status. Response determined by RECIST 1.1/modified RECIST every 6 weeks
# [1] = Expansion 1000 mg QD Fasted (N=10)
structure (smiles),measurement,setting,value
"C=CC(=O)Nc1cc(N2CCN(CC)CC2)ccc1Nc1cc(N(C)C(=O)Nc2c(Cl)c(OC)cc(OC)c2Cl)ncn1 [H3B-6527, N-(2-((6-(3-(2,6-dichloro-3,5-dimethoxyphenyl)-1-methylureido)pyrimidin-4-yl)amino)-5-(4-ethylpiperazin-1-yl)phenyl)acrylamide]",Best Overall Response: Complete Response (CR),300 mg QD Fasted (N=3),0 (0.0) n (%)
same,Best Overall Response: Not Evaluable,300 mg QD Fasted (N=3),0 (0.0) n (%)
same,Best Overall Response: Partial Response (PR),300 mg QD Fasted (N=3),0 (0.0) n (%)
same,Best Overall Response: Progressive Disease (PD),300 mg QD Fasted (N=3),0 (0.0) n (%)
same,Best Overall Response: Unknown,300 mg QD Fasted (N=3),0 (0.0) n (%)
same,Objective Response Rate (CR+PR),300 mg QD Fasted (N=3),0 (0.0) n (%)
same,Clinical Benefit Rate (CBR)(CR+PR+Durable SD),300 mg QD Fasted (N=3),1 (33.3) n (%)
same,Best Overall Response: Complete Response (CR),600 mg QD Fasted (N=3),0 (0.0) n (%)
same,Best Overall Response: Not Evaluable,600 mg QD Fasted (N=3),0 (0.0) n (%)
same,Best Overall Response: Partial Response (PR),600 mg QD Fasted (N=3),0 (0.0) n (%)
same,Best Overall Response: Progressive Disease (PD),600 mg QD Fasted (N=3),1 (33.3) n (%)
same,Best Overall Response: Unknown,600 mg QD Fasted (N=3),0 (0.0) n (%)
same,Objective Response Rate (CR+PR),600 mg QD Fasted (N=3),0 (0.0) n (%)
same,Clinical Benefit Rate (CBR)(CR+PR+Durable SD),600 mg QD Fasted (N=3),2 (66.7) n (%)
same,Best Overall Response: Complete Response (CR),1000 mg QD Fasted (N=7),0 (0.0) n (%)
same,Best Overall Response: Not Evaluable,1000 mg QD Fasted (N=7),0 (0.0) n (%)
same,Best Overall Response: Partial Response (PR),1000 mg QD Fasted (N=7),1 (14.3) n (%)
same,Best Overall Response: Progressive Disease (PD),1000 mg QD Fasted (N=7),0 (0.0) n (%)
same,Best Overall Response: Unknown,1000 mg QD Fasted (N=7),0 (0.0) n (%)
same,Objective Response Rate (CR+PR),1000 mg QD Fasted (N=7),1 (14.3) n (%)
same,Clinical Benefit Rate (CBR)(CR+PR+Durable SD),1000 mg QD Fasted (N=7),5 (71.4) n (%)
same,Best Overall Response: Complete Response (CR),1400 mg QD Fasted (N=4),0 (0.0) n (%)
same,Best Overall Response: Not Evaluable,1400 mg QD Fasted (N=4),0 (0.0) n (%)
same,Best Overall Response: Partial Response (PR),1400 mg QD Fasted (N=4),1 (25.0) n (%)
same,Best Overall Response: Progressive Disease (PD),1400 mg QD Fasted (N=4),0 (0.0) n (%)
same,Best Overall Response: Unknown,1400 mg QD Fasted (N=4),0 (0.0) n (%)
same,Objective Response Rate (CR+PR),1400 mg QD Fasted (N=4),1 (25.0) n (%)
same,Clinical Benefit Rate (CBR)(CR+PR+Durable SD),1400 mg QD Fasted (N=4),3 (75.0) n (%)
same,clinical benefit rate,BID group,25.8%
same,confirmed ORR,BID group,0%
same,clinical benefit rate (complete response + partial response + durable stable disease),BID group,38%
same,confirmed overall response rate (ORR),BID group,0%
same,median OS,BID group,7.3 months
same,median PFS,BID group,2.8 months
same,median overall survival (OS),BID group,8.0 months
same,median progression-free survival (PFS),BID group,3.4 months
same,Best Overall Response: Complete Response (CR),[1],0 (0.0) n (%)
same,Best Overall Response: Not Evaluable,[1],0 (0.0) n (%)
same,Best Overall Response: Partial Response (PR),[1],0 (0.0) n (%)
same,Best Overall Response: Progressive Disease (PD),[1],1 (10.0) n (%)
same,Best Overall Response: Unknown,[1],3 (30.0) n (%)
same,Objective Response Rate (CR+PR),[1],0 (0.0) n (%)
same,Clinical Benefit Rate (CBR)(CR+PR+Durable SD),[1],2 (20.0) n (%)
same,clinical benefit rate,QD group,45.8%
same,confirmed ORR,QD group,12.5%
same,clinical benefit rate (complete response + partial response + durable stable disease),QD group,52%
same,confirmed overall response rate (ORR),QD group,8.3%
same,median OS,QD group,10.6 months
same,median PFS,QD group,4.1 months
same,median overall survival (OS),QD group,11.1 months
same,median progression-free survival (PFS),QD group,4.1 months
same,Best Overall Response: Complete Response (CR),"Total (N=27), QD fasted",0 (0.0) n (%)
same,Best Overall Response: Not Evaluable,"Total (N=27), QD fasted",0 (0.0) n (%)
same,Best Overall Response: Partial Response (PR),"Total (N=27), QD fasted",2 (7.4%) n (%) and 2 (7.4) n (%)
same,Best Overall Response: Progressive Disease (PD),"Total (N=27), QD fasted",2 (7.4) n (%)
same,Best Overall Response: Unknown,"Total (N=27), QD fasted",3 (11.1) n (%)
same,Objective Response Rate (CR+PR),"Total (N=27), QD fasted",2 (7.4) n (%)
same,Clinical Benefit Rate (CBR)(CR+PR+Durable SD),"Total (N=27), QD fasted",13 (48.1) n (%)

# Reference: patent US20230172867A1, “A METHOD FOR TREATING CANCER WITH AN ORAL DOSAGE FORM OF AN FGFR4 INHIBITOR” (Eisai R&D Management Co., Ltd., priority 2020, published 2023)
